For assay [1], the target named is KRAS G12V (Homo sapiens, UniProt P01116, G12V). The assay is described as follows: SOS-catalyzed nucleotide exchange assay, KRAS G12V (Procedure A). Format: biochemical. The settings on record: GNE. In short, it runs like this:
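Biotinylated KRAS G12V was loaded with Bodipy-GDP alongside Terbium-streptavidin to form a TR-FRET complex, which was preincubated with compounds for 60 minutes in 384-well plates. Human SOS protein and unlabeled GTP were then added for 90 minutes, giving final concentrations of 1.25 nM KRAS-G12V, 160 nM SOS and 3 mM GTP. The 520/495 nm emission ratio was read on an Envision.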

The target of assay [2] is KRAS WT (Homo sapiens, UniProt P01116). The assay can be described thus: SOS-catalyzed nucleotide exchange assay, KRAS WT (Procedure A). Format: biochemical. The settings on record: GNE. The gist of the method:
(§1)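 Compounds were preincubated 60 min with a biotinylated RAS·Bodipy-GDP/Tb-streptavidin TR-FRET complex, and exchange was started with human SOS plus 3 mM GTP at RT. RAS/SOS: G12C 3 nM/40 nM, WT and G12D 1 nM/40 nM, all 60 min; G13D 1.25 nM/0 nM, 30 min. 520/495 ratio normalized to DMSO and saturating inhibitor, four-parameter fit.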

Assay [3] addresses T1, AsPC-1 cells (Homo sapiens, UniProt P01116, G12D).
T1 construct: p-ERK/total ERK AlphaSureFire read-out
The assay is described as follows: Cellular phospho-ERK assay, AsPC-1 cells (KRAS G12D). Format: cell-based. The settings on record: 2 hours, read-out: AsPC1 pERK IC50. In short, it runs like this:
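PANC08.13 or AsPC-1 cells (homozygous KRAS G12D) were seeded overnight, then treated for 2 h at 37 °C with a 10-point 1:3 titration from 30 μM. Lysates were assayed by AlphaLISA SureFire for p-ERK and total ERK. IC50 came from a 4-parameter fit of the p-ERK/total ERK ratio.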

The target in assay [4] is KRAS G12D (Homo sapiens, UniProt P01116, G12D). The assay can be described thus: SOS-catalyzed nucleotide exchange assay, KRAS G12D (Procedure A). Format: biochemical. The settings on record: guanine nucleotide exchange (GNE). In short, it runs like this:
as §1

Chain of KRAS WT (P01116 with tags, fused parts or gaps isoform P01116-2): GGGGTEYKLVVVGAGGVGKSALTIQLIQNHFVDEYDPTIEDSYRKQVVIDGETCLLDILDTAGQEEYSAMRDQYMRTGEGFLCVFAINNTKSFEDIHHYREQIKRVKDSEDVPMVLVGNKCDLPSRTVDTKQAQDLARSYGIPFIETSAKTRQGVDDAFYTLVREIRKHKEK
Chain of KRAS G12V (P01116 with tags, fused parts or gaps isoform P01116-2 G12V): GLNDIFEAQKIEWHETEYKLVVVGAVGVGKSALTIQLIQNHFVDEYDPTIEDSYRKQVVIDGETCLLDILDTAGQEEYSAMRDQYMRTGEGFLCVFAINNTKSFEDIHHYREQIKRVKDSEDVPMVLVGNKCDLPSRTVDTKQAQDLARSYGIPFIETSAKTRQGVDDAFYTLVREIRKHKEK
T1 sequence (P01116 1-188 isoform P01116-2 G12D): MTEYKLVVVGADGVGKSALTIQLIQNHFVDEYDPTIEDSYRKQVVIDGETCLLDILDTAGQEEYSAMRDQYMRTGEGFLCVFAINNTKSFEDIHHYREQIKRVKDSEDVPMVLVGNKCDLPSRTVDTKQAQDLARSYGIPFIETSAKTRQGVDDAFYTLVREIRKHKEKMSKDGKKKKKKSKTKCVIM
Chain of KRAS G12D (P01116 with tags, fused parts or gaps isoform P01116-2 G12D): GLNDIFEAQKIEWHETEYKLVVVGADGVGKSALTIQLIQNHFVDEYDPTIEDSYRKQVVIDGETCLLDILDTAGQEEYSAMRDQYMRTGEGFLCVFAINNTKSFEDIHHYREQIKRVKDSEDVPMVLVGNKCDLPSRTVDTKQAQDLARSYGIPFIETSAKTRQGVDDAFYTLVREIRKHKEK

The term IC50 denotes the concentration that gives 50% inhibition. For the compound `C#Cc1c(F)ccc2cc3[nH]ncc3c(-c3nccc4c3sc3nc(OC[C@@]56CCC7(CC7)N5C[C@H](F)C6)nc(N5C[C@H]6CC[C@@H](C5)N6)c34)c12` [Ex-97, 4-((1R,5S)-3,8-diazabicyclo[3.2.1]octan-3-yl)-8-(5-ethynyl-6-fluoro-1H-benzo[f]indazol-4-yl)-2-(((6′R,7a′S)-6′-fluorotetrahydrospiro[cy-clopropane-1,3′-pyrrolizin]-7a′(5'H)-yl)methoxy)pyrido[4′, 3′:4,5]thieno[2,3-d]pyrimidine], the IC50 was determined as 3130 nM in assay [1], 1290 nM in assay [2], 210 nM in assay [3] and 3 nM in assay [4].

As for `C#Cc1c(F)ccc2cc3[nH]ncc3c(-c3nccc4c3sc3nc(OC[C@]5(CN6CCC6)CC5(F)F)nc(N5C[C@H]6CC[C@@H](C5)N6)c34)c12` [Ex-107, 2-(((R)-1-(azetidin-1-ylmethyl)-2,2-difluorocyclopropyl)meth-oxy)-4-((1R,5S)-3,8-diazabicyclo[3.2.1]octan-3-yl)-8-(5-ethynyl-6-fluoro-1H-benzo[f]indazol-4-yl)pyrido[4′,3′:4,5]thie-no[2,3-d]pyrimidine], the 50% inhibitory concentration (IC50) in assay [1] was 1030 nM; in assay [2], 800 nM; in assay [3], 51.8 nM; in assay [4], 3.23 nM.

With `C#Cc1c(F)sc2cc3[nH]ncc3c(-c3nccc4c3sc3nc(OC[C@@]56CCCN5C[C@H](F)C6)nc(N5C[C@H]6CC[C@@H](C5)N6)c34)c12` [Ex-82, 4-((1R,5S)-3,8-diazabicyclo[3.2.1]oc-tan-3-yl)-8-(5-ethynyl-6-fluoro-1H-thieno[3,2-f]indazol-4-yl)-2-(((2R,7aS)-2-fluorotetrahydro-1H-pyrrolizin-7a(5H)-yl)methoxy)pyri-do[4′,3′:4,5]thi-eno[2,3-d]pyrimidine], the half-maximal inhibitory concentration (IC50) in assay [1] is 16.2 nM; in assay [2], 12.5 nM; in assay [3], 6.29 nM; in assay [4], 1.93 nM.

With `C#Cc1c(F)ccc2cc3[nH]ncc3c(-c3nccc4c3sc3nc(OC[C@]5(CN6CC7(CCOC7)C6)CC5(F)F)nc(N5C[C@H]6CC[C@@H](C5)N6)c34)c12` [Ex-104, 2-(((1R)-1-(((4-((1R,5S)-3,8-diazabicyclo[3.2.1]octan-3-yl)-8-(5-ethynyl-6-fluoro-1H-benzo[f]indazol-4-yl)pyrido[4′,3′:4,5]thie-no[2,3-d]pyrimidin-2-yl)oxy)methyl)-2,2-difluorocyclopropyl)meth-yl)-6-oxa-2-azaspiro[3.4]octane], the IC50 in assay [1] came to 631 nM; in assay [2], 399 nM; in assay [3], 48.4 nM; in assay [4], 1.94 nM.

Turning to `F[C@H]1CN2CCC[C@@]2(COc2nc(N3C[C@H]4CC[C@@H](C3)N4)c3c(n2)sc2c(-c4c(C5(F)CC5)c(C(F)(F)F)cc5[nH]ncc45)nccc23)C1` [Ex-79, 4-((1R,5S)-3,8-diazabicyclo[3.2.1]octan-3-yl)-8-(5-(1-fluorocyclopropyl)-6-(trifluoromethyl)-1H-indazol-4-yl)-2-(((2R,7aS)-2-fluorotetrahydro-1H-pyrrolizin-7a(5H)-yl)methoxy)pyrido[4′,3′:4,5]thieno[2,3-d]pyrimidine], the IC50 in assay [1] stood at 4490 nM; in assay [2], 4810 nM; in assay [3], 612 nM; in assay [4] it was 12.3 nM.

Regarding `Cc1cc2[nH]ncc2c(-c2nccc3c2sc2nc(OC[C@@]45CCCN4C[C@H](F)C5)nc(N4C[C@@H]5CC[C@H]4CN5)c23)c1C(F)(F)F` [Ex-75, 4-((1S,4S)-2,5-diazabicyclo[2.2.2]octan-2-yl)-2-(((2R,7aS)-2-fluorotetrahydro-1H-pyrrolizin-7a(5H)-yl)methoxy)-8-(6-methyl-5-(trifluoromethyl)-1H-indazol-4-yl)pyrido[4′,3′:4,5]thieno[2,3-d]pyrimidine], the IC50 in assay [1] was greater than 11100 nM; in assay [2], 3680 nM; in assay [3], 629 nM; in assay [4], 38.1 nM.

As for `Cc1cc2[nH]ncc2c(-c2nccc3c2sc2nc(OCC4CCS4(=O)=O)nc(N4C[C@H]5CC[C@@H](C4)N5)c23)c1C(F)(F)F` (stereo partly drawn) [Ex-31, 2-(((4-((1R,5S)-3,8-diazabicyclo[3.2.1]octan-3-yl)-8-(6-methyl-5-(trifluoromethyl)-1H-indazol-4-yl)pyrido[4′,3′:4,5]thieno[2,3-d]pyrimidin-2-yl)oxy)methyl)thietane 1,1-dioxide], the IC50 was greater than 11100 nM in assay [1], greater than 11100 nM in assay [2], greater than 30000 nM in assay [3] and 7790 nM in assay [4].

As for `Cc1cc2[nH]ncc2c(-c2nccc3c2sc2nc(OC[C@H]4C[C@H](S(C)(=O)=O)C4)nc(N4C[C@H]5CC[C@@H](C4)N5)c23)c1C(F)(F)F` [Ex-29, 4-((1R,5S)-3,8-diazabicyclo[3.2.1]octan-3-yl)-8-(6-methyl-5-(trifluoromethyl)-1H-indazol-4-yl)-2-(((1r,3R)-3-(methylsulfonyl)cyclobutyl)meth-oxy)pyrido[4′,3′:4,5] thieno[2,3-d]pyrimidine], the IC50 in assay [1] was greater than 11100 nM; in assay [2], greater than 11100 nM; in assay [3], greater than 30000 nM; in assay [4] it was 2480 nM.

`F[C@H]1CN2CCC[C@@]2(COc2nc(N3C[C@H]4CC[C@@H](C3)N4)c3c(n2)sc2c(-c4c5cn[nH]c5cc5cccc(Cl)c45)nccc23)C1` [Ex-58, 4-((1R,5S)-3,8-diazabicyclo[3.2.1]octan-3-yl)-8-(5-chloro-1H-benzo[/]indazol-4-yl)-2-(((2R,7aS)-2-fluorotetrahydro-1H-pyrrolizin-7a(5H)-yl)methoxy)pyrido[4′,3′:4,5]thieno[2,3-d]pyrimidine]: the IC50 turned out to be 2560 nM in assay [1], 1830 nM in assay [2], 447 nM in assay [3] and 9.3 nM in assay [4].

As to `COC1(COc2nc(N3C[C@H]4CC[C@@H](C3)N4)c3c(n2)sc2c(-c4c(C(F)(F)F)c(C)cc5[nH]ncc45)nccc23)CC1` [Ex-26, 4-((1R,5S)-3,8-diazabicyclo[3.2.1]octan-3-yl)-2-((1-methoxycyclopropyl)methoxy)-8-(6-methyl-5-(trifluoromethyl)-1H-indazol-4-yl)pyrido[4′,3′:4,5]thieno[2,3-d]pyrimidine], the IC50 in assay [1] was greater than 11100 nM; in assay [2] it was greater than 11100 nM; in assay [3], greater than 30000 nM; in assay [4], 3200 nM.

As for `C#Cc1c(F)ccc2cc3[nH]ncc3c(-c3nccc4c3sc3nc(OC[C@]5(CN6CCC(COC)CC6)CC5(F)F)nc(N5C[C@H]6CC[C@@H](C5)N6)c34)c12` [Ex-111, 4-((1R,5S)-3,8-diazabicyclo[3.2.1]octan-3-yl)-2-(((R)-2,2-difluoro-1-((4-(methoxymethyl)piperidin-1-yl)methyl)cyclopropyl)methoxy)-8-(5-ethynyl-6-fluoro-1H-benzo[f]indazol-4-yl)pyrido[4′,3′:4,5]thieno[2,3-d]pyrimidine], the IC50 in assay [1] was determined as 4400 nM; in assay [2], 1720 nM; in assay [3], 172 nM; in assay [4], 5.43 nM.

Turning to `C#Cc1c(F)ccc2cc3[nH]ncc3c(-c3nccc4c3sc3nc(OC[C@]5(CN(C)C)CC5(F)F)nc(N5C[C@H]6CC[C@@H](C5)N6)c34)c12` [Ex-96, 1-((1R)-1-(((4-((1R,5S)-3,8-diazabicyclo[3.2.1]octan-3-yl)-8-(5-ethynyl-6-fluoro-1H-benzo[f]indazol-4-yl)pyrido[4′,3′:4,5]thie-no[2,3-d]pyrimidin-2-yl)oxy)methyl)-2,2-difluorocyclopropyl)-N,N-dimethylmethanamine], the IC50 in assay [1] came to 248 nM; in assay [2] it was 259 nM; in assay [3], 22.8 nM; in assay [4], 1.62 nM.

`Cc1cc2[nH]ncc2c(-c2nccc3c2sc2nc(OCCN4CCOC4=O)nc(N4C[C@H]5CC[C@@H](C4)N5)c23)c1C(F)(F)F` [Ex-40, 3-(2-((4-((1R,5S)-3,8-diazabicyclo[3.2.1]octan-3-yl)-8-(6-methyl-5-(trifluoromethyl)-1H-indazol-4-yl)pyrido[4′,3′:4,5]thieno[2,3-d]pyrimidin-2-yl)oxy)ethyl)oxazolidin-2-one]: the IC50 was greater than 11100 nM in assay [1], greater than 11100 nM in assay [2], greater than 30000 nM in assay [3] and 5880 nM in assay [4].

In the case of `C#Cc1csc2cc3[nH]ncc3c(-c3nccc4c3sc3nc(OC[C@]5(CN6CC7(C6)CC(F)(F)C7)CC5(F)F)nc(N5C[C@H]6CC[C@@H](C5)N6)c34)c12` [Ex-83, 4-((1R,5S)-3,8-diazabicyclo[3.2.1]octan-3-yl)-2-(((R)-1-((6,6-difluoro-2-azaspiro[3.3]heptan-2-yl)methyl)-2,2-difluorocyclopropyl)methoxy)-8-(5-ethynyl-1H-thieno[3,2-f]indazol-4-yl)pyrido[4′,3′:4,5]thieno[2,3-d]pyrimidine], the IC50 came to 704 nM in assay [1], 430 nM in assay [2], 42.5 nM in assay [3] and 1.43 nM in assay [4].

As to `Fc1ccc2cc3[nH]ncc3c(-c3nccc4c3C3(CC3)c3nc(OC[C@@]56CCCN5C[C@H](F)C6)nc(N5C[C@H]6CC[C@@H](C5)N6)c3-4)c2c1Cl` (single isomer, unassigned) [Ex-117], the concentration for half-maximal inhibition (IC50) in assay [1] was determined as 859 nM; in assay [2] it was 369 nM; in assay [3] it was 189 nM; in assay [4], 2.4 nM.

The record behind these values is patent US20260347372A1, “SMALL MOLECULE INHIBITORS OF KRAS G12D MUTANT” (MERCK SHARP & DOHME LLC, priority 2023, published 2026).
